“Also recorded” adds a separate entry of the source.
What was measured:
[1] = biological target: T1, SARS-CoV-2 Spike S1 protein binding to ACE2-expressing A549 cells (Severe acute respiratory syndrome coronavirus 2, UniProt P0DTC2); assay type: cell-based
T1 construct: the HIS-tagged SARS-Cov2-S1 protein is added to each tube; ACE2: endogenous in A549 cells (ATCC)

[2] = Maximum solubility of ectoine; assay type: physicochemical
Excerpt: For a maximally saturated solute solution, concentrations that are just below the solubility limit of the respective solute are preferred. Such a highly concentrated solute solution can be used as a starting solution to prepare the solution required on site. In this way, individual solutions can be diluted depending on the administration required, the patient's condition (existing conditions, age, etc.) and/or desired therapy. This is especially beneficial when not differently concentrated solutions can be stored.

[3] = Osmolarity of ectoine solution; assay type: physicochemical
Excerpt: An isotonic NaCl solution of 0.9% has an osmolar activity of 286 mOsmol/kg H2O. A 2% ectoine solution has an osmolarity of 147 mOsmol/kg H2O. An isotonic ectoine solution thus has a concentration of 3.89%.

Oral toxicity = assay type: in vivo
[4] = Plasma concentration after oral ectoine in rats; assay type: in vivo; details: 1000 mg/kg

Row | SMILES | Median (background-subtracted fluorescence, Mann Whitney test) [1] | effect on Cov2 S1 protein binding to A549 cells [1] | effect on the binding between Cov2 S1 and the A549 cells [1] | inhibition of the binding of the Cov2 S1 protein to A549 cells [1] | inhibitory effect on Cov2 S1 binding [1] | bound viral Cov2 S1 protein on the cell surface [1] | fluorescence of the Cov2 S1 protein bound to A549 cells [1] | maximum solubility ([2]; 25° C.) | maximum solubility ([2]; 40° C.) | osmolarity ([3]; 2% ectoine solution) [mOsmol/kg H2O] | concentration of an isotonic ectoine solution ([3]; relative to isotonic 0.9% NaCl, 286 mOsmol/kg H2O) [%] | NOAL (Oral toxicity) [mg/kg body weight/day] | plasma concentration [4] [µg/mL]
1 | CC(=O)NCC[C@H](N)C(=O)O [NADA, Nγ-Acetyl-L-2,4-diaminobutyric acid, reference compound] | 1.820, n = 4 | no effect | No effect | no inhibition; also recorded: little inhibition; also recorded: no significant effect | comparable to untreated cells |  |  |  |  |  |  |  | 
2 | CC1=N[C@H](C(=O)O)CCN1 [ectoine, (4S)-2-Methyl-1,4,5,6-tetrahydropyrimidine-4-carbon acid] | 0.3050, n = 4 |  |  | complete inhibition; also recorded: positive effect | significant | less or no bound viral Cov2 S1 protein | lower fluorescence | about 550 g/L | about 620 g/L | 147 | 3.89 | 2000 | 99

Reference: US20230226056A1, “[…] FOR PREVENTING OR TREATING SARS-COV-2 INFECTIONS” (priority 2020, published 2023)
